Test: Biodegradation of rotenone after the composition is poured onto soil
Details: rotenone in the composition

## C=C(C)[C@H]1Cc2c(ccc3c2O[C@@H]2COc4cc(OC)c(OC)cc4[C@@H]2C3=O)O1 [rotenone]
  Time until substantially biodegraded after pouring or drenching the nest: approximately 3 days
Stable in liquid form in the container
  Time until biodegrading after pouring the solution onto the soil: 2 to 5 days

— patent US20080293571A1, “Insecticide organic fertilizer composition, process and method” (priority 2007, published 2008)
